In the METLIN SMRT retention time set (Domingo-Almenara et al. 2019) one finds RP-LC retention time data, which are given here for 79 compounds.

Molecules are shown by their SMILES.

A short description of this data set: gradient 5% acetonitrile 3 min, to 50% in 2 min, to 85% in 15 min, held 3 min, 100 µL/min. The note with it: column: Zorbax Extend-C18 2.1 x 50 mm; eluents: water / acetonitrile, 0.1% formic acid. Summed up: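 Pure standards were run in mixtures of ~100 molecules by HPLC coupled to a quadrupole time-of-flight mass spectrometer. The column was a Zorbax Extend-C18 (2.1 × 50 mm, 1.8 μm) at 100 μL/min, with water and acetonitrile each containing 0.1% formic acid, in positive and negative ionization mode. Dead and dwell volumes were 40 μL and 900 μL. Retention time was taken from computationally picked adduct peaks, each manually inspected, with data collected over 3 months.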
For `O=C(Cc1ccc(NC(=O)c2cc(=O)c3ccccc3o2)cc1)NCc1cccs1`, the RP-LC retention time was determined as 739 s.

`CCNC(=O)N1CC(c2nc(-c3ccccc3)no2)C2(CCOCC2)C1` (centres undefined) had an RP-LC retention time of 728 s.

With `COCCCNC(=O)Cc1c(C)n(C)c2nc(-c3ccccc3)nn2c1=O`, the RP-LC retention time was 618 s.

In turn, `COc1cccc(C2=NC3(CCN(C(=O)c4ccc5c(c4)OCO5)CC3)NC2=O)c1` came in with an RP-LC retention time of 712 s.

Turning to `Cn1nc(C(=O)N2CCCC2)c2c1CCN(C(=O)CCC(=O)NCCN1CCCCC1)C2`, the RP-LC retention time was 574 s.

The compound `Cc1nnc2cc(N3CCN(C(=O)Nc4ccc5c(c4)OCCO5)CC3)cnn12` registered an RP-LC retention time of 595 s.

`COc1ccc(-c2nnc(-c3ccc(C)c(S(=O)(=O)N4CCCC4)c3)o2)cc1` returned an RP-LC retention time of 1030 s.

`CCCc1noc(-c2ccc(-n3cnc(C(=O)NC4CCCCC4)c3)nc2)n1` displayed an RP-LC retention time of 741 s.

Turning to `COc1ccc(Br)cc1CNC(=O)c1sc2ncccc2c1-n1cccc1`, the RP-LC retention time turned out to be 1130 s.

Consider `Cc1cc(N2CCN(C(=O)Nc3ccc(C)c(Cl)c3)CC2)nc(N2CCCC2)n1`, for which the RP-LC retention time was found to be 747 s.

Turning to `Cc1sc(-c2cc(C(F)(F)F)[nH]n2)cc1S(=O)(=O)N1CCC(C)CC1`, the RP-LC retention time worked out at 1100 s.

As for `CS(=O)(=O)N1CCC(C(=O)N2CCC(COCc3ccccc3)CC2)CC1`, the RP-LC retention time was determined as 772 s.

`CC(Oc1cccc(Cl)c1)C(=O)Nc1ccc2c(c1)Sc1ncccc1C(=O)N2C` (centres undefined): the RP-LC retention time turned out to be 911 s.

Consider `Cc1ccc2c(C(=O)NCCN3CCCCC3)cc(NC(=O)C3CCC3)cc2n1`, for which the RP-LC retention time is 562 s.

Compound `O=Cc1cn(Cc2ccc(Cl)cc2)c2ccccc12` yielded an RP-LC retention time of 968 s.

As to `Cc1ccc(C)c(NC(=O)Cn2nc3c(Oc4ccc(C(C)C)cc4)nccn3c2=O)c1`, the RP-LC retention time is 1080 s.

As for `Cc1ccc2c(c1)N(CCCC(=O)NCCCN1CC(C)CC(C)C1)C(=O)CO2` (centres undefined), the RP-LC retention time was 674 s.

`COCc1cn(C2CN(C(=O)Cc3c[nH]c4ccccc34)C2)nn1`: the RP-LC retention time turned out to be 634 s.

In the case of `O=C(Cn1nc2c(N3CCCCCC3)nccn2c1=O)Nc1ccccc1C(F)(F)F`, the RP-LC retention time worked out at 727 s.

In the case of `COc1ccccc1N1CCN(C(=O)c2cc(NC(=O)C(C)C)cc3nc(C)ccc23)CC1`, the RP-LC retention time stood at 666 s.

The compound `O=C(Cn1ccnc1-c1ccnc(N2CCCCC2)c1)NC1CCCCC1` registered an RP-LC retention time of 624 s.

Turning to `O=C(Cc1nnc(-c2ccccc2)o1)NCc1ccccn1`, the RP-LC retention time was 577 s.

The compound `COc1ccc(N2C(=O)C3N=NN(Cc4nc(-c5ccc6c(c5)OCO6)no4)C3C2=O)cc1` (centres undefined) displayed an RP-LC retention time of 911 s.

`CN1C(=O)C(c2c[nH]c3ccccc23)=C(c2c[nH]c3ccccc23)C1=O` came in with an RP-LC retention time of 868 s.

Compound `CCN1c2ccc(Cl)cc2C(=O)NC12CCN(C(=O)Nc1cccc(OC)c1)CC2` came in with an RP-LC retention time of 852 s.

For `O=C(N1CC(Oc2ccccc2-c2nc(C3CC3)no2)C1)C1(c2ccccc2)CC1`, the RP-LC retention time came out at 665 s.

`O=c1c(=O)n(-c2cccc(Cl)c2)ccn1Cc1nc(-c2ccc(F)cc2)no1` came in with an RP-LC retention time of 881 s.

In turn, `Cc1ccc(-c2cc(N3CCOCC3)c3cc(NC(=O)C4CC4)ccc3n2)cc1` showed an RP-LC retention time of 701 s.

Compound `CC(C)NC(=O)c1nn(-c2ccccc2F)nc1CO` registered an RP-LC retention time of 768 s.

In the case of `CC(C)c1noc(-c2cc(=O)n(CC(=O)Nc3ccc4c(c3)OCO4)c3ccccc23)n1`, the RP-LC retention time amounted to 956 s.

For `CCc1nc2cc(N3CCCC(C(=O)NCC(C)C)C3)cnc2nc1CC` (centres undefined), the RP-LC retention time was 790 s.

For the compound `Cc1ccc(S(=O)(=O)N2CCN(C3=CC4=NC(C)CN4C=N3)CC2)cc1C` (centres undefined), the RP-LC retention time worked out at 698 s.

`COc1ccccc1-c1nc(Cc2noc(-c3ccccc3)n2)c(C)o1` had an RP-LC retention time of 1040 s.

`COc1ccc(-c2ccnc3nc(C4CC4)nn23)c(F)c1` registered an RP-LC retention time of 797 s.

In the case of `COc1ccc(OC)c(NC2=NS(=O)(=O)C(c3ccc(F)cc3)=C2C)c1`, the RP-LC retention time stood at 880 s.

For the compound `Cc1ccc(NC(=O)N2CC(N(Cc3ccncc3)CC(C)C)C2)cc1F`, the RP-LC retention time turned out to be 705 s.

As for `O=C(NCCSc1ncc(-c2ccc(F)cc2)[nH]1)c1cccs1`, the RP-LC retention time is 584 s.

In turn, `COc1cccc(S(=O)(=O)N2CCN(c3cnn4c(C)nnc4c3)CC2)c1` returned an RP-LC retention time of 671 s.

`COc1ccc(C2(C(=O)N3CCC(c4noc(-c5cccc(OC)c5)n4)CC3)CC2)cc1` came in with an RP-LC retention time of 1040 s.

In turn, `COc1ccccc1-c1nnc(SCc2cccc(C(F)(F)F)c2)o1` came in with an RP-LC retention time of 991 s.

With `Cc1cc(-c2nnc(-c3ccc(F)cc3)o2)c(C)n1CC(=O)NCc1ccc2c(c1)OCO2`, the RP-LC retention time is 916 s.

On to `O=C1CCCN1CCCN1C(=O)[C@H]2CN(Cc3ccc(F)c(Cl)c3)C[C@H]2C1=O`, for which the RP-LC retention time came to 599 s.

Compound `CCCNC(=O)C1CCN(c2ccc(SCC(=O)Nc3ccc(N(CC)CC)cc3C)nn2)CC1` gave an RP-LC retention time of 576 s.

`Cc1cc(C)c(S(=O)(=O)Nc2cccc(-c3cn4cccc(C)c4n3)c2)cc1C` had an RP-LC retention time of 743 s.

The compound `CCCCNC(=O)CSc1nnc(C)c2c(C)n(-c3ccccc3)nc12` displayed an RP-LC retention time of 646 s.

`Cc1ccc(CN2CCN(CC(=O)Nc3ccc(Cl)cc3)C(=O)C2=O)cc1` had an RP-LC retention time of 836 s.

`COc1cc(-n2c(=S)[nH]c3ccccc3c2=O)c(Cl)cc1Cl` had an RP-LC retention time of 923 s.

Turning to `O=C(NCCc1csc(C2CCCN(C(=O)C3CC3)C2)n1)C1CC1` (centres undefined), the RP-LC retention time stood at 662 s.

Compound `Cn1cnc(S(=O)(=O)N2CCC(C(=O)Nc3ccc(F)c(Cl)c3)CC2)c1` showed an RP-LC retention time of 762 s.

Compound `Cc1ccc(C2CC(=O)c3cnc(N4CCN(c5ccccn5)CC4)nc3C2)cc1` (centres undefined) gave an RP-LC retention time of 727 s.

The compound `COc1ccc(-c2ccnc3nc(CCc4ccc(OC)c(OC)c4)nn23)cc1` displayed an RP-LC retention time of 859 s.

With `CCCNC(=O)Cn1c(=O)c2cnc(-c3ccccc3)nc2n(CC)c1=O`, the RP-LC retention time came out at 862 s.

In turn, `COC(=O)c1ccc(NC(=O)Cn2c(=O)c3cc(C)nn3c3ncccc32)cc1` yielded an RP-LC retention time of 700 s.

As to `COC(=O)c1c(C)c(C(=O)C(C)N(CC2CCCCC2)C(=O)c2ccccc2Cl)c(C)n1C` (centres undefined), the RP-LC retention time is 1240 s.

Turning to `COc1ccc(NC(=O)Cn2nc3cc(C)nc(-c4ccccc4)n3c2=O)cc1OC`, the RP-LC retention time was 736 s.

In turn, `Cc1ccc2c(=O)c3c([nH]c2c1C)CCN(CC(=O)Nc1ccc2c(c1)OCCO2)C3` gave an RP-LC retention time of 667 s.

`CC(C)CNC(=O)C1CCN(C(=O)Nc2ccc(NC(=O)Nc3ccccc3)cc2)CC1` showed an RP-LC retention time of 812 s.

In the case of `COCCNC(=O)C1CCCN(S(=O)(=O)c2cc(OC)ccc2OC)C1` (centres undefined), the RP-LC retention time turned out to be 687 s.

`O=C(NCc1cccc(Cl)c1)C1c2ccccc2CCN1C(=O)C1CC1` (centres undefined) had an RP-LC retention time of 838 s.

On to `CCOC(=O)c1ccc(NC(=O)Cn2c(=O)n(-c3ccccc3)c(=O)c3c2cc(C)n3C)cc1`, for which the RP-LC retention time was determined as 854 s.

Turning to `Cc1nc2cc(-c3noc(/C=C/c4ccccc4)n3)ccc2o1`, the RP-LC retention time was determined as 1140 s.

Consider `Cc1cc(-c2nnc(C3CCC3)o2)c(C)n1CC(=O)Nc1cccc(F)c1`, for which the RP-LC retention time was 900 s.

On to `Cc1cccc2c1NC(=O)C2(O)CC(=O)c1ccc(C(C)C)cc1` (centres undefined), for which the RP-LC retention time was determined as 860 s.

`Cc1cc(C)cc(C(=O)N2CCCC(C(=O)NC3CCCC3)C2)c1` (centres undefined) yielded an RP-LC retention time of 836 s.

In the case of `NC(=O)c1c([N+](=O)[O-])cc(C(F)(F)F)cc1[N+](=O)[O-]`, the RP-LC retention time was found to be 702 s.

`Cc1ccccc1OCC(=O)NC(C)c1ccccc1` (centres undefined): the RP-LC retention time was 903 s.

In turn, `COc1cccc(CNC(=O)C2(C)CCN(C(=O)Nc3cc(OC)c(OC)c(OC)c3)CC2)c1` had an RP-LC retention time of 732 s.

`CCn1c(=O)c(C)nc2cc(-c3noc(C4CC(=O)N(c5ccccc5)C4)n3)ccc21` (centres undefined): the RP-LC retention time came out at 837 s.

With `CC(C)C(=O)Nc1nc(-c2ccc3c(c2)N(C)C(=O)CO3)cs1`, the RP-LC retention time was 787 s.

`O=C(NC1CCCCC1)c1ccc(Cn2cncn2)cc1` gave an RP-LC retention time of 671 s.

On to `CCC(=O)Nc1nc(-c2ccc(C(C)C)cc2)cs1`, for which the RP-LC retention time turned out to be 1000 s.

In turn, `O=C(CN1C(=O)CCc2cc(Br)ccc21)Nc1ccccn1` came in with an RP-LC retention time of 761 s.

The compound `COc1ccc(Cn2nc3ccc(S(=O)(=O)N4CCCC4)cn3c2=O)cc1` registered an RP-LC retention time of 827 s.

For the compound `CC(C)CC(=O)N1CCC(c2noc(-c3ccncc3)n2)C1` (centres undefined), the RP-LC retention time is 719 s.

The compound `CCN(CC)c1ncc(NC(=O)c2ccc(Br)cc2)cc1C(=O)O` had an RP-LC retention time of 692 s.

In the case of `Cc1ccc(Cn2c(N3CCC(C(=O)NCC4CC4)CC3)nc3ccsc3c2=O)cc1`, the RP-LC retention time amounted to 879 s.

Turning to `CCOC(=O)c1ccc(N2C=C(C(=O)OC)S(=O)(=O)c3ccccc32)cc1`, the RP-LC retention time was 893 s.

Take `NS(=O)(=O)c1ccc(CCNC(=O)CCCn2cccc2)cc1`: the RP-LC retention time was 627 s.

Compound `N#Cc1cccc(C(=O)N2CCC(c3cc(N)on3)CC2)c1` registered an RP-LC retention time of 641 s.
